The source of these data is patent publication US20040038950A1, “Pharmaceutical composition for treating IL-1 related diseases or disorders” (priority 2002, published 2004).

The subject of assay [1] is type II collagen mRNA. Kind of assay: Osteoarthritic rabbit model (ACLT), intraarticular injection, RT-PCR of type II collagen. In kind it is in vivo. Particulars: rabbit ACLT knee, intraarticular once a week for 5 weeks. The protocol: (§1) Mature New Zealand White rabbits underwent bilateral anterior cruciate ligament transection (ACLT). ACLT was performed using a medial arthrotomy method. Postoperatively the animals were permitted cage (60 cm×60 cm×40 cm) activity without immobilization. The right knees received via intraartiticular injection DHEA, DHEA-pyruvate or DHEA+HA, 4 weeks after ACLT and once a week for 5 weeks. The left knees received 0.3 ml of intraarticular injection with control solution (carrier solution). After 9 weeks from ACLT, the animas were sacrificed.
(§2) Synovium (entire tissue) around the infrapatellar fat pads and cartilage tissue from the femoral condyle and the tibial plateau were harvested. The subsequent experimental procedure was the same as described in Test Example IV.

For assay [2], the system named is TIMP-1 mRNA. As to the kind of experiment: Osteoarthritic rabbit model (ACLT), intraarticular injection, RT-PCR of TIMP-1. In kind it is in vivo. Particulars: rabbit ACLT knee, intraarticular once a week for 5 weeks. Here is the method:
as §1, §2

Assay [3] relates to MMP-1 mRNA. Kind of assay: Effect of IL-1β on MMP-1 mRNA expression in chondrocyte culture, RT-PCR. Particulars: 1000 μg/ml of IL-1β, 3 days. In kind it is cell-based, human. The protocol:
(§3) Sixteen hours prior to a treatment, the complete culture medium was replaced with a serum-free medium. Chondrocyte alginate bead cultures were then treated with IL-1β ([…], (Calbiochem) and DHEA (0, 10, 50 or 100 μM) for 3 days.
(§4) Total RNA from chondrocytes was extracted using RNeasy Mini Kit (QIAGEN). Reverse transcription from 1 μg of total RNA was conducted using First Strand cDNA Synthesis Kit (MBI Fermentas) according to manufacturer's recommendation with random hexamers. The resulting cDNA was then amplified by polymerase chain reaction using AccuPower PCR Premix (Bioneer, Korea) in a final volume of 20 μl using three thermocycler temperatures (30 sec at […], 30 sec at 60° C., and 30 sec at […]). All reactions were determined to be in the linear range of amplification with the cycle number ranging from 14 to 30. The PCR products were analyzed by separation on a 2% agarose gel followed by ethidium bromide staining. Following electrophoresis, photographs were taken and analyzed using a densitometric program (TINA; Raytest Isotopenmeβgerate, Germany). Integrated density values for the genes in question were then normalized to the glyceraldehyde-3-phosphate dehydrogenase (GAPDH) values for a semiquantitative assessment. After normalizing with respect to GAPDH, percentage increase or decrease was determined. Each experiment was repeated at least three times. […]

Assay [4] has as its system MMP-3 mRNA. Kind of assay: Effect of IL-1β on MMP-3 mRNA expression in chondrocyte culture, RT-PCR. Particulars: 100 μg/ml of IL-1β, 3 days. In kind it is cell-based, human. The protocol:
as §3, §4

For the compound `CC(=O)C(=O)O[C@H]1CC[C@@]2(C)C(=CC[C@@H]3[C@@H]2CC[C@]2(C)C(=O)CC[C@@H]32)C1` [DHEA-pyruvate, DHEA-Pyruvate], the “expression of type II collagen” value in assay [1] is recorded as “increased”. Also, the “expression of TIMP-1” value in assay [2] is “increased”.

On to “IL-1β: recombinant human interleukin-1β (Calbiochem), used to induce MMP mRNA in chondrocytes”, for which the “MMP-1 mRNA, increase” value in assay [3] came to 470%. The “MMP-3 mRNA, increase” value in assay [4] was determined as 310%.
